# Test results as given in patent publication US20250170114A1, “METHODS OF TREATMENT USING T-TYPE CALCIUM CHANNEL MODULATORS” (Praxis Precision Medicines, Inc., priority 2022, published 2025).
# Tested on: participants with ET
# Assay: Phase 2 trial: treatment-emergent adverse events (TEAEs)
# Format: in vivo
# Conditions: for SOC Nervous System Disorders / SOC Psychiatric Disorders / SOC Vascular Disorders / Any TEAE / PT Cognitive disorder / PT Constipation / PT Dizziness / PT Fatigue / PT Insomnia / SOC Gastrointestinal Disorders / SOC General Disorders and Administration Site Conditions / SOC Musculoskeletal and Connective Tissue Disorders: Part B
# Description: Part A of the clinical trial was open-label and assessed the safety and tolerability of the study drug, as well as the overall magnitude and pattern of change in ET severity.
# Part B of the clinical trial consisted of both an open-label titration phase and a randomized, double-blind, placebo-controlled withdrawal phase. Part B assessed the safety and tolerability of the study drug, as well as the overall magnitude and pattern of change in ET severity and the duration of that effect. […] In the randomized, double-blind, placebo-controlled withdrawal phase, participants were either maintained on their final open-label dose or switched to placebo for an additional 14 days (Days 43 to 56).
# Key safety measures included clinical laboratory evaluations, 12-lead ECG, C-SSRS, and vital signs. Key efficacy assessments included the TETRAS Performance subscale, TETRAS Upper Limb using accelerometry, CGI, and PGI-C. Blood samples were obtained for the determination of study drug plasma concentrations using a validated bioanalytical method and may also be used for method development and/or metabolite characterization.
# On Day 1, participants received a 20 mg dose of study drug on an empty stomach (at least 1 hour before breakfast). Participants remained in a clinical setting under medical observation for approximately 6 hours. TETRAS Performance assessments were performed before dosing and 6 hours (±2) post-dose. For dosing on Day 2 through Day 41, participants were instructed to dose QAM at least 1 hour before breakfast at home. Participants continued taking study drug 20 mg QAM at home through Day 3. […] On Day 4, participants escalated to 40 mg QAM through Day 7, when they returned to the clinic for safety assessments and efficacy testing. On Day 8, participants escalated to 60 mg QAM through Day 14. […] On Day 15, participants escalated to 80 mg QAM through Day 21, when they returned to the clinic for safety assessments and efficacy testing. On Day 22, participants escalated to 100 mg QAM through Day 28. […] On Day 29, participants escalated to 120 mg QAM through Day 42, when they returned to the clinic for safety assessments and efficacy testing. The dose on Day 42 was taken in the clinic. On Day 35, participants received a telephone call from site staff to inquire about AEs and concomitant medications. On Day 41, participants completed a TETRAS Performance Upper Limb assessment via a telehealth visit. […] Participants could only change to a lower dose level once, and no dose changes were allowed to occur after Day 36.
# In both phases, key safety measures included clinical laboratory evaluations, 12-lead ECG, C-SSRS, and vital signs. Key efficacy assessments included the TETRAS Performance subscale, TETRAS Upper Limb using accelerometry, CGI, PGI-C, TETRAS ADL Subscale, QUEST, BDI-II, and BAI. Blood samples were obtained for the determination of study drug and metabolite plasma concentrations.
# [1] = open-label titration phase of Part B
# [2] = randomized-withdrawal phase of Part B, participants receiving study drug
structure (smiles),measurement,setting,value
CC(C)(C)NC(=O)CN1CCC(CNC(=O)c2cc(F)cc(Cl)c2)CC1.Cl [Study drug],SOC Nervous System Disorders,"40 mg, N = 15",4 n (%)
same,SOC Psychiatric Disorders,"40 mg, N = 15",2 n (%)
same,SOC Vascular Disorders,"40 mg, N = 15",0 n (%)
same,Any TEAE,"60 mg, N = 12",8 n (%)
same,PT Cognitive disorder,"60 mg, N = 12",1 n (%)
same,PT Constipation,"60 mg, N = 12",0 n (%)
same,PT Dizziness,"60 mg, N = 12",2 n (%)
same,PT Fatigue,"60 mg, N = 12",2 n (%)
same,PT Insomnia,"60 mg, N = 12",0 n (%)
same,SOC Gastrointestinal Disorders,"60 mg, N = 12",0 n (%)
same,SOC General Disorders and Administration Site Conditions,"60 mg, N = 12",3 n (%)
same,SOC Musculoskeletal and Connective Tissue Disorders,"60 mg, N = 12",2 n (%)
same,SOC Nervous System Disorders,"60 mg, N = 12",8 n (%)
same,SOC Psychiatric Disorders,"60 mg, N = 12",1 n (%)
same,SOC Vascular Disorders,"60 mg, N = 12",2 n (%)
same,Any TEAE,"80 mg, N = 10",4 (40.0) n (%)
same,PT Cognitive disorder,"80 mg, N = 10",0 n (%)
same,PT Constipation,"80 mg, N = 10",1 (10.0) n (%)
same,PT Dizziness,"80 mg, N = 10",0 n (%)
same,PT Fatigue,"80 mg, N = 10",0 n (%)
same,PT Insomnia,"80 mg, N = 10",0 n (%)
same,SOC Gastrointestinal Disorders,"80 mg, N = 10",2 (20.0) n (%)
same,SOC General Disorders and Administration Site Conditions,"80 mg, N = 10",0 n (%)
same,SOC Musculoskeletal and Connective Tissue Disorders,"80 mg, N = 10",0 n (%)
same,SOC Nervous System Disorders,"80 mg, N = 10",2 (20.0) n (%)
same,SOC Psychiatric Disorders,"80 mg, N = 10",0 n (%)
same,SOC Vascular Disorders,"80 mg, N = 10",0 n (%)
same,Any TEAE,"100 mg, N = 9",1 (11.1) n (%)
same,PT Cognitive disorder,"100 mg, N = 9",0 n (%)
same,PT Constipation,"100 mg, N = 9",1 (11.1) n (%)
same,PT Dizziness,"100 mg, N = 9",0 n (%)
same,PT Fatigue,"100 mg, N = 9",0 n (%)
same,PT Insomnia,"100 mg, N = 9",0 n (%)
same,SOC Gastrointestinal Disorders,"100 mg, N = 9",1 (11.1) n (%)
same,SOC General Disorders and Administration Site Conditions,"100 mg, N = 9",0 n (%)
same,SOC Musculoskeletal and Connective Tissue Disorders,"100 mg, N = 9",0 n (%)
same,SOC Nervous System Disorders,"100 mg, N = 9",0 n (%)
same,SOC Psychiatric Disorders,"100 mg, N = 9",0 n (%)
same,SOC Vascular Disorders,"100 mg, N = 9",0 n (%)
same,Any TEAE,"120 mg, N = 9",3 (33.3) n (%)
same,PT Cognitive disorder,"120 mg, N = 9",0 n (%)
same,PT Constipation,"120 mg, N = 9",1 (11.1) n (%)
same,PT Dizziness,"120 mg, N = 9",0 n (%)
same,PT Fatigue,"120 mg, N = 9",0 n (%)
same,PT Insomnia,"120 mg, N = 9",0 n (%)
same,SOC Gastrointestinal Disorders,"120 mg, N = 9",1 (11.1) n (%)
same,SOC General Disorders and Administration Site Conditions,"120 mg, N = 9",0 n (%)
same,SOC Musculoskeletal and Connective Tissue Disorders,"120 mg, N = 9",0 n (%)
same,SOC Nervous System Disorders,"120 mg, N = 9",1 (11.1) n (%)
same,SOC Psychiatric Disorders,"120 mg, N = 9",1 (11.1) n (%)
same,SOC Vascular Disorders,"120 mg, N = 9",0 n (%)
same,Any TEAE,"Overall, N = 17",15 n (%)
same,PT Cognitive disorder,"Overall, N = 17",4 n (%)
same,PT Constipation,"Overall, N = 17",6 n (%)
same,PT Dizziness,"Overall, N = 17",6 n (%)
same,PT Fatigue,"Overall, N = 17",3 n (%)
same,PT Insomnia,"Overall, N = 17",3 n (%)
same,SOC Gastrointestinal Disorders,"Overall, N = 17",8 n (%)
same,SOC General Disorders and Administration Site Conditions,"Overall, N = 17",5 n (%)
same,SOC Musculoskeletal and Connective Tissue Disorders,"Overall, N = 17",3 n (%)
same,SOC Nervous System Disorders,"Overall, N = 17",12 n (%)
same,SOC Psychiatric Disorders,"Overall, N = 17",4 n (%)
same,SOC Vascular Disorders,"Overall, N = 17",2 n (%)
same,severity of treatment emergent adverse events (TEAEs),Phase 2 trial overall,mild to moderate
same,discontinuation of participants during the titration period,accelerated titration regimen,a third
same,overall safety and tolerability,doses up to 120 mg,generally safe and well tolerated
same,Drug-related TEAE cognitive disorder,[1],4 participants
same,Drug-related TEAE dizziness,[1],6 participants
same,Drug-related TEAE paraesthesia,[1],2 participants
same,participants experiencing TEAEs considered related to study drug,[1],70.6%
same,participants who experienced at least 1 TEAE,[1],88.2%
same,serious adverse event (SAE) experienced,"open-label titration phase of Part B, considered unrelated to study drug",One mild SAE of cyst
same,participants who experienced TEAEs,"randomized withdrawal phase of Part B, study drug group",16.7%
same,ongoing AE constipation that had emerged during open-label titration,[2],3 participants
same,ongoing AE photosensitivity/photophobia that had emerged during open-label titration,[2],2 participants
